Data published in patent US20140323562A1, “THIOSULFINATE ANTIOXIDANTS AND METHODS OF USE THEREOF” (Universition of Ottawa, priority 2011, published 2014).
Like-named read-outs stand apart in the source and are kept apart here. Marks after values point to notes of the source that are not given here.

Experiments:
[1] = Oxidation of egg phosphatidylcholine liposomes containing the fluorescent probe H2B-PMHC; conditions: for effect on oxidation of liposome-embedded H2B-PMHC with one equivalent of NAC: MeOAMVN- or ABAP-mediated, 4.5-15 μM, equivalent amount of NAC, PBS pH 7.4; for inhibition of oxidation of liposome-embedded H2B-PMHC: MeOAMVN-mediated (0.2 mM), compound 1.5-15 μM; for inhibition of oxidation of liposome-embedded H2B-PMHC / radical trapping at the lipid/water interface: no thiol; for efficacy relative to α-TOH in a lipid bilayer: inferred from no effect at 15 μM (100-fold over H2BPMHC); for radical trapping at the lipid/water interface: water-soluble ABAP-mediated oxidation; for effect of increasing equivalents of NAC on inhibited period: 4.5 μM compound, MeOAMVN and ABAP, NAC 1-5 equiv. (9) or 0-4 equiv. (5)
Description: FIG. 1 depicts representative fluorescence intensity-time profiles from MeOAMVN-mediated (0.2 mM) oxidations of egg phosphatidylcholine liposomes (1 mM) containing 0.15 μM H2BPMHC and increasing concentrations (1.5, 3.0, 4.5, 6.0, 7.5 and 15 μM) of 1 (A), 2 (B), 5 (C) and 8 (D—15 μM profile not shown); fluorescence (λex=485 nm; λem=520 nm) was recorded every 50 s;
FIG. 2 depicts representative fluorescence intensity-time profiles from MeOAMVN-mediated (0.2 mM, left) and ABAP-mediated (2.7 mM, right) oxidations of egg phosphatidylcholine liposomes (1 mM) containing 0.15 μM H2B-PMHC and either 2 (A, B) or 9 (C, D) at 4.5 μM (black), 7.5 μM (grey) or 15 μM (light grey) in PBS buffer of pH 7.4 containing an equivalent amount of NAC; panels E and F show the effect of NAC only (4.5, 7.5 and 15 μM); fluorescence (λex=485 nm; λem=520 nm) was recorded every 50 s; and
FIG. 3 depicts representative fluorescence-time profiles from MeOAMVN-mediated (0.2 mM, left) and ABAP-mediated (2.7 mM, right) oxidations of egg phosphatidylcholine liposomes (1 mM) containing 0.15 μM H2B-PMHC and either 4.5 μM 9 (A, B) with 1, 2, 3 or 5 equiv. of NAC or 4.5 μM 5 (C, D) with 0, 1, 2 or 4 equiv. of NAC; fluorescence (λex=485 nm; λem=520 nm) was recorded every 50 s.
To shed some light on this issue, the radical-trapping abilities of 1, 2 and 5 have been studied in unilamellar phosphatidylcholine liposomes—convenient models for the lipid bilayers that make up biological membranes. The relative reactivities of the compounds were determined using H2B-PMHC (6), an analog of α-tocopherol (7 or α-TOH, the most biologically-active form of Vitamin E and Nature's premier lipophilic radical-trapping antioxidant) (G. W. Burton, K. U. Ingold, Acc. Chem. Res. 1986, 19, 194-201), which undergoes a significant fluorescence enhancement upon oxidation by two equivalents of peroxyl radical. In the presence of a good radical-trapping antioxidant, the fluorescence onset is suppressed since the radicals are trapped by the compound under investigation in lieu of reacting with H2B-PMHC.
Initial experiments focused on the ability of either 1 or 2 to inhibit the oxidation of liposome-embedded H2B-PMHC by either lipophilic or hydrophilic peroxyl radicals derived from the azo initiators MeOAMVN (N. Noguchi, H. Yamashita, N. Gotoh, Y. Yamamoto, R. Numano, E. Niki, Free Rad. Biol. Med. 1998, 24, 259-268) and ABAP, (L. R. C. Barclay, S. J. Locke, J. M. MacNeil, J. VanKessel, G. W. Burton, K. U. Ingold, J. Am. Chem. Soc. 1984, 106, 2479-2481) respectively. Representative results are shown for MeOAMVN-mediated oxidations in FIG. 1. […] Since the reactivity of H2B-PMHC is essentially the same as that of α-TOH, the efficacy of 1 and 2 must therefore be less than 1/100 that of α-TOH in a lipid bilayer.
The time required to reach maximum fluorescence in the first phase of the plots in FIG. 1 (ca. 400 counts), which we will hereafter refer to as the ‘inhibited period’, reflects the stoichiometry of the reaction of the antioxidant and the peroxyl radicals. […] Chem. Int. Ed. 2009, 48, 157-160; and R. Amorati, P. T. Lynett, L. Valgimigli, D. A. Pratt, Chem. Eur. J. 2012, 18, 6370-6379)

[2] = Decomposition / Cope elimination half-life (HPLC); assay type: physicochemical
From the text: The lack of radical-trapping activity of allicin and petivericin obvious from FIGS. 1A and 1B could be due to their partitioning to the aqueous phase, where Cope elimination to produce the reactive sulfenic acids 3 and 4, respectively, is slowed dramatically by H-bonding. (V. Vaidya, K. U. Ingold, D. A. Pratt, Angew. Chem. Int. Ed. 2009, 48, 157-160; P. T. Lynett, K. Butts, V. Vaidya, G. E. Garrett, D. A. Pratt, Org. Biomol. Chem. 2011, 9, 3320-3330; E. Block, Angew. Chem. Int. Ed. Engl. 1992, 31, 1135-1178; and F. Freeman, Y. Kodera, J. Agric. Food Chem. 1995, 43, 2332-2338] However, the half-life for decomposition of allicin in the liposome solutions (determined by HPLC) was extended by only 50% compared to that determined in non-H-bonding organic solvents (˜60 minutes). (V. Vaidya, K. U. Ingold, D. A. Pratt, Angew. Chem. Int. Ed. 2009, 48, 157-160; P. T. Lynett, K. Butts, V. Vaidya, G. E. Garrett, D. A. Pratt, Org. Biomol. Chem. 2011, 9, 3320-3330). This is consistent with a previous report which provides a partition coefficient for allicin in phosphatidylcholine:water of Kp=11 (T. Miron, A. Rabinkov, D. Mirelman, M. Wilchek, L. Weiner, Biochim. Biophys. Acta 2000, 1463, 20-30). The Cope elimination of 3 from petivericin was roughly identical—with a half-life of ˜90 minutes (see Supp. Info.). […]

[3] = Peroxyl radical clock (methyl linoleate oxidation, Z,E:E,E product ratio by HPLC); conditions: for kinh/kinh (C6BPT): chlorobenzene at 37° C., peroxyl radical clock
Description: The kinetics of reaction of p-n-C6H13-BPT with peroxyls was studied using a method based on the peroxyl radical clocks described in Roschek, B.; Tallman, K. A.; Rector, C. L.; Gillmore, J. G.; Pratt, D. A.; Punta, C.; Porter, N. A. J. Org. Chem. 2006, 71, 3527-3532.
Stock solutions of methyl linoleate (“MeLin”) (1.0 M), methoxy 2,2′-Azobis(4-methoxy-2,4-dimethyl valeronitrile) (“MeOAMVN”) (0.1 M), and the thiosulfinates, BPT and p-n-C6H13-BPT 5, were prepared in chlorobenzene. Samples were assembled in 1 mL HPLC autosampler vials with a total reaction volume of 100 μL. Solutions were prepared in the following order to avoid premature oxidation:thiosulfinate (1 mM-7 mM), MeLin (0.10 M) and then MeOAMVN (0.01 M), and diluted to 100 μL with chlorobenzene. The sealed samples were then heated to 37° C. for 2 h. After 2 h, the oxidation was stopped by the addition of butylated hydroxytoluene (“BHT”) (50 μL of 1.0 M solution in hexanes), followed by reduction of the hydroperoxides to alcohols by triphenylphosphine (50 μL of 1 M solution in chlorobenzene). The samples were then diluted to 1 mL with HPLC grade hexanes and analyzed by HPLC (0.5% i-PrOH in hexanes, 1 mL min-1, 40 min, Sun-Fire Silica, 5 mm 4.6×250 mm column, UV detection at 234 nm). The ratio of products (Z,E:E,E) was plotted versus thiosulfinate concentration to derive kH, (Roschek, B.; Tallman, K. A.; Rector, C. L.; Gillmore, J. G.; Pratt, D. A.; Punta, C.; Porter, N. A. J. Org. Chem. 2006, 71, 3527-3532).
The peroxyl radical clock method was used to measure the rate constants for the reaction of a furan-containing thiosulfinate compound (S-(furan-2-ylmethyl) furan-2-ylmethanesulfinothioate) with peroxyl radicals (kinh). The method relies on the competition between the β-fragmentation of a peroxyl radical and its trapping by a H-atom donor. When methyl linoleate is used as a precursor, the reduction of the two initially formed (Z,E)-dienylperoxyl radicals by the antioxidant (A-H in the scheme below) competes with their isomerization to the more thermodynamically stable (E,E)-dienylperoxyl radicals. […]

[4] = chlorobenzene, 37° C., same conditions; cited from earlier work
[5] = going from chlorobenzene to acetonitrile; cited from earlier work
[6] = known from literature under these conditions; cited from earlier work
[7] = radicals generated using MeOAMVN

## C=CCS[S+]([O-])CC=C (stereo not shown) [compound 1, allicin]
[1]
  effect on oxidation of liposome-embedded H2B-PMHC with one equivalent of NAC: little effect
  inhibition of oxidation of liposome-embedded H2B-PMHC: neither 1 nor 2 were able to slow the oxidation
  efficacy relative to α-TOH in a lipid bilayer: less than 1/100
  radical trapping at the lipid/water interface: cannot
[2]; HPLC
  extension of half-life for decomposition in liposome solutions compared to non-H-bonding organic solvents: 50%

## OSC12c3ccccc3C(c3ccccc31)c1ccccc12 [compound 5, 9-triptycenesulfenic acid]
[1]
  effect of increasing equivalents of NAC on inhibited period: the inhibited period was extended with increasing concentration of NAC
  inhibition of oxidation of liposome-embedded H2B-PMHC: excellent concentration-dependent radical-trapping activity
  radical trapping at the lipid/water interface: can trap radicals at the lipid/water interface
[1]; MeOAMVN-mediated, in presence of compound
  rate of H2B-PMHC oxidation (fluorescence increase): essentially nil
[1]; implied from slope relative to 8
  number of peroxyl radicals trapped (stoichiometry): one
[1]; radicals generated using AAPH
  slope of inhibited period versus concentration: 10 min/µM
[1]; [7]
  slope of inhibited period versus concentration: 14 min/µM

## CCCCCCc1ccc(CS[S+]([O-])Cc2ccc(CCCCCC)cc2)cc1 (stereo not shown) [compound 9]
[1]
  effect of increasing equivalents of NAC on inhibited period: proportionately increased the inhibited period
  effect on oxidation of liposome-embedded H2B-PMHC with one equivalent of NAC: pronounced inhibited period
  inhibition of oxidation of liposome-embedded H2B-PMHC: essentially indistinguishable from those supplemented with allicin and petivericin

## [O-][S+](Cc1ccco1)SCc1ccco1 (stereo not drawn) [S-(furan-2-ylmethyl) furan-2-ylmethanesulfinothioate]
[3]
  kinh/kinh (C6BPT): 1.1

## [O-][S+](Cc1ccccc1)SCc1ccccc1 (stereo not shown) [BPT, S-Benzyl phenylmethane thiosulfinate]
[1]
  effect on oxidation of liposome-embedded H2B-PMHC with one equivalent of NAC: little effect
  inhibition of oxidation of liposome-embedded H2B-PMHC: neither 1 nor 2 were able to slow the oxidation
  efficacy relative to α-TOH in a lipid bilayer: less than 1/100
  radical trapping at the lipid/water interface: cannot
[2]; liposome solutions
  half-life: ~1.5 h
[4]
  kH: 200000 M⁻¹ s⁻¹

## Cc1c(C)c2c(c(C)c1O)CC[C@@](C)(CCC[C@H](C)CCC[C@H](C)CCCC(C)C)O2 [compound 7, α-tocopherol]
[5]
  slowing of rate of reaction with peroxyl radicals by H-bond accepting solvent: 20 fold

## CCCCCCc1ccc(CS[S+]([O-])Cc2ccc(CCCCCC)cc2)cc1 (stereo not shown) [p-n-C6H13-BPT 5, p-n-C6H13-Benzyl phenylmethane thiosulfinate]
[3]
  kinh/kinh (C6BPT): 1.0^a
[3]; chlorobenzene, 37° C., MeLin 0.10 M, MeOAMVN 0.01 M
  rate constant relative to that of BPT: about 1.6 fold

## Cc1c(C)c2c(c(C)c1O)CCC(C)(C)O2 [compound 8, PMHC]
[1]; radicals generated using AAPH
  slope of inhibited period versus concentration: 21 min/µM
[1]; [7]
  slope of inhibited period versus concentration: 31 min/µM
[1]
  radical trapping at the lipid/water interface: can trap radicals at the lipid/water interface
[6]
  number of peroxyl radicals trapped (stoichiometry): two

## CC(=O)N[C@@H](CS)C(=O)O [NAC, N-acetylcysteine]
[1]; ABAP-mediated, 4.5, 7.5 and 15 μM
  effect of NAC alone on oxidation: only a modest retarding effect
[1]; MeOAMVN-mediated, 4.5, 7.5 and 15 μM
  effect of NAC alone on oxidation: does little
